Data on 16 compounds can be found in the supplement of paper PMC12613149.

Data set [1] can be described thus: reversed-phase LC retention time (C18, 15 min MeOH gradient); higher = more hydrophobic / later elution.
Data set [2] in a line: collision cross section (TIMS, N2 drift gas) of the primary ion; higher = larger gas-phase ion size.
Where [3] appears, read: ionization mode: ESI+, ion species: [M+H]+.
Where [4] appears, read: ionization mode: ESI-, ion species: [M-H]-.

Where a name gives a salt, the structure may show the parent alone.

`CC1(C)CC(N(C=O)CCCCCCN(C=O)C2CC(C)(C)NC(C)(C)C2)CC(C)(C)N1` [Univul-4050H]: the “reversed-phase LC retention time” value in data set [1] (setting [3]) was 7.4 min. In data set [2] (setting [3]), this compound yielded a collision cross section of 226.35 Å².
Turning to `C[C@H]1[C@H](C)CC[C@]2(C(=O)O)CC[C@]3(C)C(=CC[C@@H]4[C@@]5(C)CC[C@H](O)C(C)(C)[C@@H]5CC[C@]43C)[C@H]12` [Ursolic acid], the “reversed-phase LC retention time” value in data set [1] (setting [3]) is 18.4 min; in data set [1] (setting [4]), 17.6 min. In addition, the collision cross section is listed as 208.26 Å² in data set [2] (setting [3]) and 219.38 Å² in data set [2] (setting [4]).
As for `CCCCCCOC(=O)c1ccccc1C(=O)c1ccc(N(CC)CC)cc1O` [Uvinul A Plus], the “reversed-phase LC retention time” value in data set [1] (setting [3]) was determined as 17.4 min. This compound also showed a collision cross section in data set [2] (setting [3]) of 209.29 Å².
Consider `O=C(O)c1ccc(-c2ccccc2-c2nnn[nH]2)cc1` [Valsartan acid], for which the “reversed-phase LC retention time” value in data set [1] (setting [3]) is 11.2 min; in data set [1] (setting [4]) it was 6.27 min. In addition, the collision cross section was 161.62 Å² in data set [2] (setting [3]) and 162.3 Å² in data set [2] (setting [4]).
With `CCCCC(=O)N(Cc1ccc(-c2ccccc2-c2nn[nH]n2)cc1)C(C(=O)O)C(C)C` (centres undefined) [Valsartan], the “reversed-phase LC retention time” value in data set [1] (setting [3]) was 14.4 min; in data set [1] (setting [4]), 11.8 min. For the same compound, the values for the collision cross section in data set [2] (setting [3]) and in data set [2] (setting [4]) were 204.42 Å² and 203.89 Å², respectively.
Turning to `CCCc1nc(C)c2c(=O)nc(-c3cc(S(=O)(=O)N4CCN(CC)CC4)ccc3OCC)[nH]n12` [Vardenafil], the “reversed-phase LC retention time” value turned out to be 12 min in data set [1] (setting [3]) and 14.9 min in data set [1] (setting [4]). Besides, the collision cross section is 227.75 Å² in data set [2] (setting [3]) and 219.66 Å² in data set [2] (setting [4]).
On the same counts, the results for `CN(C)CC(c1ccc(O)cc1)C1(O)CCCCC1` (centres undefined) [Venlafaxine-O-desmethyl] are 8.96 min, 11.3 min, 166.78 Å² and 172.85 Å².
`COc1ccc(CCN(C)CCCC(C#N)(c2ccc(OC)c(OC)c2)C(C)C)cc1OC` (centres undefined) [Verapamil]: the “reversed-phase LC retention time” value in data set [1] (setting [3]) came to 12.2 min. The compound further yielded a collision cross section in data set [2] (setting [3]) of 208.22 Å².
For `CC(=O)CC(c1ccccc1)c1c(O)c2ccccc2oc1=O` (centres undefined) [Warfarin], the results for the “reversed-phase LC retention time” value in data set [1] (setting [3]) and in data set [1] (setting [4]) were 14.1 min and 10.1 min, respectively. The collision cross section in data set [2] (setting [3]) is reported as 168.14 Å²; in data set [2] (setting [4]), 171.91 Å².
Turning to `C[C@H]1CCCC(=O)CCC/C=C/c2cc(O)cc(O)c2C(=O)O1` [Zearalenone], the “reversed-phase LC retention time” value in data set [1] (setting [4]) amounted to 14.4 min. The compound further returned a collision cross section in data set [2] (setting [4]) of 178.16 Å².
On to `O=C1Cc2cc(CCN3CCN(c4nsc5ccccc45)CC3)c(Cl)cc2N1` [Ziprasidone], for which the “reversed-phase LC retention time” value in data set [1] (setting [3]) turned out to be 11.2 min. This compound also had a collision cross section in data set [2] (setting [3]) of 192.95 Å².
Consider `Cc1ccc(S(=O)(=O)O)c(C)c1` [m-Xylene-4-sulfonic acid], for which, in data set [1] (setting [4]), the “reversed-phase LC retention time” value is 7.68 min. In addition, in data set [2] (setting [4]), the collision cross section came out at 136.84 Å².
For `Cc1cc(-c2ccc(N)c(C)c2)ccc1N` [o-Tolidine], the “reversed-phase LC retention time” value in data set [1] (setting [3]) amounted to 7.76 min. The same compound yielded a collision cross section in data set [2] (setting [3]) of 165.69 Å².
Take `Cc1cc(O)ccc1Cl` [p-Chlorocresol]: the “reversed-phase LC retention time” value in data set [1] (setting [4]) came out at 11.6 min. In data set [2] (setting [4]), the collision cross section was 122.21 Å².
For `Cc1ccc(S(N)(=O)=O)cc1` [p-Toluenesulfonamide], in data set [1] (setting [4]), the “reversed-phase LC retention time” value was determined as 8.4 min. Further, the collision cross section in data set [2] (setting [4]) came out at 134.47 Å².
On the same counts, the results for `Cc1ccc(OS(=O)(=O)[O-])cc1` [p-Tolyl Sulfate] are 7.34 min and 135.45 Å².
